For experiment [1], the target named is Protein kinase C gamma type (Homo sapiens) (UniProt P05129). Briefly: Selectivity interaction (ProQinase) EUB0000171b PRKCG.
Experiment [2] has as its target T1, Bone morphogenetic protein receptor type-2 (Homo sapiens) (UniProt Q13873).
T1 sequence (whole entry): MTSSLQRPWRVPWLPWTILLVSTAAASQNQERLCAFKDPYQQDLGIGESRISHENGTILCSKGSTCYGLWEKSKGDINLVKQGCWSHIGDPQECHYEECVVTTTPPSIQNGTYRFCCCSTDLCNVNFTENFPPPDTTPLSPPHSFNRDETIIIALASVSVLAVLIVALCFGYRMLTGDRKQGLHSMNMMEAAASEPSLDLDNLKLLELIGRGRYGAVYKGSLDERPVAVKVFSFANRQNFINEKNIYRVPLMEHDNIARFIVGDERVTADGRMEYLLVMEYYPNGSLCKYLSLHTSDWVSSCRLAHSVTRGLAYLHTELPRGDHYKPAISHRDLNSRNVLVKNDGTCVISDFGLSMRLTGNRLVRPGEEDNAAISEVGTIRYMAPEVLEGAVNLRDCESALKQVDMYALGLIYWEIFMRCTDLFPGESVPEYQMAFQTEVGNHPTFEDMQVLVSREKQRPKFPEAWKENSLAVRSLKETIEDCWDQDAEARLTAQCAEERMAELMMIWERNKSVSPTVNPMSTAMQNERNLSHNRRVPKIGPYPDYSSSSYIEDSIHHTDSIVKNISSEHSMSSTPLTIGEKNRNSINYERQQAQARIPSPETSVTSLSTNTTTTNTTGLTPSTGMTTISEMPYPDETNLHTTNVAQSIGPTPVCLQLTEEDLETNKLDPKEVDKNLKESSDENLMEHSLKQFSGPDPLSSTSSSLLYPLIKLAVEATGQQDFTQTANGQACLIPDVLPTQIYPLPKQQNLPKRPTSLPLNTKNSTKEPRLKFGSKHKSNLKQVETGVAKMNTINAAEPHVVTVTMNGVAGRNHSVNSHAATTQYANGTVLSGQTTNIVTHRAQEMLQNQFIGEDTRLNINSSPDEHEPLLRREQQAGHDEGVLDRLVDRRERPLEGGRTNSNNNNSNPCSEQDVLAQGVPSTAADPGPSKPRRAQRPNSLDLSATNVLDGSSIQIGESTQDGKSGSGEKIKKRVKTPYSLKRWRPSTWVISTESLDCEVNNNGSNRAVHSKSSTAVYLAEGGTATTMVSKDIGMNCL
The experiment can be described thus: Selectivity interaction (Kinase panel (DSF assay)) EUB0001558a BMPR2.

The target in experiment [3] is Tyrosine-protein kinase CSK (Homo sapiens) (UniProt P41240). Particulars: at 10 µM.
Sequence of Tyrosine-protein kinase CSK (Homo sapiens) (P41240 2-450 limits assumed): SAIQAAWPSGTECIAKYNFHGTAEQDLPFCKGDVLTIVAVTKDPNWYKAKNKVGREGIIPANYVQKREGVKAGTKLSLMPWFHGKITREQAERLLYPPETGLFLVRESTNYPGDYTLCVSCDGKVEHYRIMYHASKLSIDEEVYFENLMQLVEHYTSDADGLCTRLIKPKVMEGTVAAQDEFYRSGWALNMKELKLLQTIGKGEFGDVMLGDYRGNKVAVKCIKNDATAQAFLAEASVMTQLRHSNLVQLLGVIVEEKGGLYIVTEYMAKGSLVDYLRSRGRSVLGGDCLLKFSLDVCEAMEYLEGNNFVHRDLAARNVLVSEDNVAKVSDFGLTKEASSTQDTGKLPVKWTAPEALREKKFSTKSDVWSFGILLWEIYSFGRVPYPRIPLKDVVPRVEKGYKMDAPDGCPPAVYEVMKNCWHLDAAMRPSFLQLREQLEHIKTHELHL
Experiment [4] concerns the target NT-3 growth factor receptor (Homo sapiens, UniProt Q16288). Conditions: at 10 µM.
Experiment [5] deals with T2, Receptor-interacting serine/threonine-protein kinase 1 (Homo sapiens) (UniProt Q13546).
T2 sequence (whole entry): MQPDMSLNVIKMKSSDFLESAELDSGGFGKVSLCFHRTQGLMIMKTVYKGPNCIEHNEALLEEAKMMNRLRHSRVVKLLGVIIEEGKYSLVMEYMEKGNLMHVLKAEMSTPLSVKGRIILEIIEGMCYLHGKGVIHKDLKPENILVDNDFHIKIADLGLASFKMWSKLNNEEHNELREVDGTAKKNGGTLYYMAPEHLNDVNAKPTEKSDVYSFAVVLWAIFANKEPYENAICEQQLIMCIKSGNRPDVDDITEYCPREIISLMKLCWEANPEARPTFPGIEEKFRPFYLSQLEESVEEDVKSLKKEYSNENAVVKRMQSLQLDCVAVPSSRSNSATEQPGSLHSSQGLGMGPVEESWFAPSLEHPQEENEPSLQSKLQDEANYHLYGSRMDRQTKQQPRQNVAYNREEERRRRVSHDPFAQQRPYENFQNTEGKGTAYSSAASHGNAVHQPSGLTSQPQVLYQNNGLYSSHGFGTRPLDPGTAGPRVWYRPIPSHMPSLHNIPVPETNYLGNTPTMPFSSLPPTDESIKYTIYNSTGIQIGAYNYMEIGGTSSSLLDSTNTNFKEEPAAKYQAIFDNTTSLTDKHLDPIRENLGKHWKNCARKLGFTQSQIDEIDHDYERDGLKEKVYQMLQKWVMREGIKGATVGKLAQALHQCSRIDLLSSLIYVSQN
The experiment can be described thus: Selectivity interaction (KinomeScan (DiscoverX)) EUB0001079a RIPK1. Particulars: at 1 µM.

Experiment [6] has as its target Ribosomal protein S6 kinase beta-1 (Homo sapiens, UniProt P23443). Briefly: Selectivity interaction (KinomeScan (DiscoverX)) EUB0001079a RPS6KB1. Conditions: at 1 µM.
Experiment [7] deals with Homeodomain-interacting protein kinase 2 (Homo sapiens, UniProt Q9H2X6). Briefly: Selectivity interaction (Kinase panel (Z-LYTE Assay)) EUB0001632a HIPK2. Particulars: at 10 µM.
Experiment [8] concerns the target Vascular endothelial growth factor receptor 1 (Homo sapiens) (UniProt P17948). Briefly: Selectivity interaction (KinomeScan (DiscoverX)) EUB0000607a FLT1. Conditions: at 10 µM.
The target of experiment [9] is Tyrosine-protein kinase Fyn (Homo sapiens) (UniProt P06241). Briefly: Selectivity interaction (Kinase panel (Invitrogen)) EUB0000639a FYN. Particulars: at 200 nM.
Experiment [10] addresses Serine/threonine-protein kinase PLK2 (Homo sapiens, UniProt Q9NYY3). The experiment can be described thus: Selectivity interaction (KinomeScan (DiscoverX)) EUB0000229b PLK2. Conditions: at 10 µM.
The target of experiment [11] is T3, Dual specificity mitogen-activated protein kinase kinase 4 (Homo sapiens) (UniProt P45985).
T3 sequence (whole entry): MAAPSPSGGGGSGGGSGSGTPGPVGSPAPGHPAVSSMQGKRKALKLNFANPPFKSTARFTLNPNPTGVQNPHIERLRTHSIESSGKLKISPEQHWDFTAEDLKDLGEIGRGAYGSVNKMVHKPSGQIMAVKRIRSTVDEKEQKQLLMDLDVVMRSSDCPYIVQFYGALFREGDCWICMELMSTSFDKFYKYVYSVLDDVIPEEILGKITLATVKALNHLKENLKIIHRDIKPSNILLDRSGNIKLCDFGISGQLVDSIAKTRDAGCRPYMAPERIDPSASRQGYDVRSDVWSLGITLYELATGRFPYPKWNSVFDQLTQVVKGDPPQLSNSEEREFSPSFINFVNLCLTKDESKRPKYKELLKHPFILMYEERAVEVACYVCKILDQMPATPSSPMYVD
Briefly: Selectivity interaction (Kinase panel (DSF assay)) EUB0001559a MAP2K4. (DSF heats the sample and reads unfolding from a dye or from intrinsic fluorescence.)

The target in experiment [12] is Ephrin type-A receptor 5 (Homo sapiens) (UniProt P54756). The experiment can be described thus: Selectivity interaction (KinomeScan (DiscoverX)) EUB0000595a EPHA5. Particulars: at 10 µM.
Experiment [13] has as its target Dual specificity protein kinase CLK4 (Homo sapiens, UniProt Q9HAZ1). Briefly: Selectivity interaction (KinomeScan (DiscoverX)) EUB0001619a CLK4. Particulars: at 1 µM.
The target in experiment [14] is Cyclin-dependent kinase 8 (Homo sapiens, UniProt P49336). Briefly: Selectivity interaction (KinomeScan (DiscoverX)) EUB0000618a CDK8. Particulars: at 10 µM.
Sequence of Cyclin-dependent kinase 8 (P49336 whole entry): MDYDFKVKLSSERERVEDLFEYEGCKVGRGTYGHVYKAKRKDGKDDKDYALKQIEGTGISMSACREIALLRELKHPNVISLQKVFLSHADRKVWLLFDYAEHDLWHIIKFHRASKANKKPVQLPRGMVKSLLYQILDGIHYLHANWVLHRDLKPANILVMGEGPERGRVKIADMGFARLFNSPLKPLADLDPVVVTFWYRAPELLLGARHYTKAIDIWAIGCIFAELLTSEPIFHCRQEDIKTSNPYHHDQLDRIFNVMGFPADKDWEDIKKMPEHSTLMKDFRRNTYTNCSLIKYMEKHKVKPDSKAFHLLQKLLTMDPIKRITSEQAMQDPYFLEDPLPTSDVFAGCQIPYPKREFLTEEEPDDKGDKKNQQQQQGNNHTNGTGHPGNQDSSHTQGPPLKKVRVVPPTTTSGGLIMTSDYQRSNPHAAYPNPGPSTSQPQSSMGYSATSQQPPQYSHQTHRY

Sequence of Ribosomal protein S6 kinase beta-1 (P23443 whole entry, looked up): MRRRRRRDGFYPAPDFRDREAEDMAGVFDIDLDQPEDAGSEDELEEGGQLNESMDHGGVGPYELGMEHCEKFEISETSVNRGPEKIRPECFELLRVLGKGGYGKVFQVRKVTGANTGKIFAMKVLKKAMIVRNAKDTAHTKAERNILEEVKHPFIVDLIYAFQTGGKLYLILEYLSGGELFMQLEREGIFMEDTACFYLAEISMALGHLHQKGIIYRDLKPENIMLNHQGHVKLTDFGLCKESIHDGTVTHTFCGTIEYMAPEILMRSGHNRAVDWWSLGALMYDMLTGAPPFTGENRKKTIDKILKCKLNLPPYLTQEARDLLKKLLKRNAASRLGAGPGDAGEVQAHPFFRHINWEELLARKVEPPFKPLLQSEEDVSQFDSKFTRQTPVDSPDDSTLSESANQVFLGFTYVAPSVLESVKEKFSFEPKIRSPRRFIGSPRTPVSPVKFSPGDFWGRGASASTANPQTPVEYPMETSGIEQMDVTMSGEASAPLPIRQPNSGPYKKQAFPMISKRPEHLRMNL
Sequence of Dual specificity protein kinase CLK4 (Q9HAZ1 whole entry, looked up): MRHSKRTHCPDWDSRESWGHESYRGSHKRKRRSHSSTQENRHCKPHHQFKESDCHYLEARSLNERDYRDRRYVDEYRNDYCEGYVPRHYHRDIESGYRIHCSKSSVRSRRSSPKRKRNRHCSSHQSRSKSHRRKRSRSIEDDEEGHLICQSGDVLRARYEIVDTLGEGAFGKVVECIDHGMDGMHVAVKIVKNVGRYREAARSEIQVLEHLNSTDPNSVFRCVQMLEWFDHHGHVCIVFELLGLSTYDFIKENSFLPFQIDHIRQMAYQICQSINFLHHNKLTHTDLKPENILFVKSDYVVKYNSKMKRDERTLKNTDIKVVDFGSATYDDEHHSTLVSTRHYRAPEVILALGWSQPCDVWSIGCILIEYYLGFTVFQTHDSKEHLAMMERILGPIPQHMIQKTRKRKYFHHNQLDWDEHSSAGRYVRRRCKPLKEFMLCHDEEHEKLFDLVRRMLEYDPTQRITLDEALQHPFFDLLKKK
Sequence of Vascular endothelial growth factor receptor 1 (Homo sapiens) (P17948 whole entry): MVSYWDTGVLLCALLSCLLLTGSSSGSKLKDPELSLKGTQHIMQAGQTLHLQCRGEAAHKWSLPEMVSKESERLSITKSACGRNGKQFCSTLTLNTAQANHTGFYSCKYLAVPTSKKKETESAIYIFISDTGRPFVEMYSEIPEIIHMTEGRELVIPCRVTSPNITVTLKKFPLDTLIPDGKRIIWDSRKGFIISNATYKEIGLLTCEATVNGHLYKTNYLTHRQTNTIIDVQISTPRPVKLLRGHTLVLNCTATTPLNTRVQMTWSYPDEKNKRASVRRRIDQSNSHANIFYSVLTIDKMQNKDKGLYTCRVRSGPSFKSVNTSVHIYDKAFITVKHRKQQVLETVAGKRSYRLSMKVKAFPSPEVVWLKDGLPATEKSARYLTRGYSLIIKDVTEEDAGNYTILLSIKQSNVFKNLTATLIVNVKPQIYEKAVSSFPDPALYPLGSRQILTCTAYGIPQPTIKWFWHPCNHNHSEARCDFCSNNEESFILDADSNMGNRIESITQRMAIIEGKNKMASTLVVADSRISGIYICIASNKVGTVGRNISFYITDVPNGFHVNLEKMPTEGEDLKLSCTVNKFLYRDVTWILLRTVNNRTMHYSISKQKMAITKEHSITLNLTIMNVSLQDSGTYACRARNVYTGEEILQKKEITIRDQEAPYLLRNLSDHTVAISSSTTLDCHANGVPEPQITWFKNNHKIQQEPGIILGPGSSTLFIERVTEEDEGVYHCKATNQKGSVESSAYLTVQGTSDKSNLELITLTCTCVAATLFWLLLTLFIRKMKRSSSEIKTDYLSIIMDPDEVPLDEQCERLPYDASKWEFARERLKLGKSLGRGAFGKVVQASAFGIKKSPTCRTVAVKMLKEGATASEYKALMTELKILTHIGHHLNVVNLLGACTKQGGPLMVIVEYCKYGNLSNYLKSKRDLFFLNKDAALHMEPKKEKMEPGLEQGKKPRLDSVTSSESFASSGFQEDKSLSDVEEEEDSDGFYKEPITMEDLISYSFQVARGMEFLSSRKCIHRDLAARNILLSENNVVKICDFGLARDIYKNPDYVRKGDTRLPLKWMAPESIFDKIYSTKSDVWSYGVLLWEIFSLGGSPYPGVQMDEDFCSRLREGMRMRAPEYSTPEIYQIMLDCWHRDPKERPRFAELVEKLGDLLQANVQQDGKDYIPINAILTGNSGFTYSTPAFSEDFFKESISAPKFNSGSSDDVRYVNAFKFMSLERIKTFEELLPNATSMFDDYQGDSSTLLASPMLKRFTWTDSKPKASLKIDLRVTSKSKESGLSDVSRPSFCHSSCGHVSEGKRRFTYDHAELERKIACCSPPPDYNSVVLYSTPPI
Sequence of Serine/threonine-protein kinase PLK2 (Q9NYY3 whole entry, looked up): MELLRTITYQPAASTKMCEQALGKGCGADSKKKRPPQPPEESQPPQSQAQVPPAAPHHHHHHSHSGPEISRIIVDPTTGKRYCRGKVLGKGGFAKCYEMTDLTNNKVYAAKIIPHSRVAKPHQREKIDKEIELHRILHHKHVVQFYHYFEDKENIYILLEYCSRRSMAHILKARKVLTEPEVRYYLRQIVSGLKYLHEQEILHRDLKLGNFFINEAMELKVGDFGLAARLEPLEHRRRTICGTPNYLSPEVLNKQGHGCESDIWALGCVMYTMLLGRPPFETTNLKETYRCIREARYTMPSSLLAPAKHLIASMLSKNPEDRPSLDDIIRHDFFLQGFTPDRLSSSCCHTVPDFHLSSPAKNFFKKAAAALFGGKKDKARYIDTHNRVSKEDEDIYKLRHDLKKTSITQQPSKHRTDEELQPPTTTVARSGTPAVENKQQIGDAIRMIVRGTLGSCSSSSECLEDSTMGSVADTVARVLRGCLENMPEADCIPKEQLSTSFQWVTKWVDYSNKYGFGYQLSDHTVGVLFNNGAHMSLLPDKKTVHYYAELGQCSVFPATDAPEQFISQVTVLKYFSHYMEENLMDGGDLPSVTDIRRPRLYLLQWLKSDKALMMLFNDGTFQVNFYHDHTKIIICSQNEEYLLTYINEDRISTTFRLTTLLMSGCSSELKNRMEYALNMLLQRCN

As for `C=CC(=O)Nc1cccc(C(=O)Nc2ccc(Nc3cc(-c4[nH]c(SC)nc4C)ccn3)cc2)c1`, the values for the % of control in [1] (at 1 µM) and in [1] (at 5 µM) were 88% and 100%, respectively. `CC(C)(O)[C@H](F)CN1Cc2cc(NC(=O)c3cnn4cccnc34)c(N3CCOCC3)cc2C1=O`: the dTM in experiment [2] is 2.1 K. With `CCN(CC)CCCCNc1ncc2cc(-c3cc(OC)cc(OC)c3)c(NC(=O)NC(C)(C)C)nc2n1`, the % of control in experiment [3] and in experiment [4] was 100% each time.

As to `Nc1cnc(N2CCc3cc(S(=O)(=O)Nc4c(F)cc(Cl)cc4F)cc(N4CCCC4=O)c32)nc1` [TP-020n], the % of control amounted to 92% in [5] and 83% in experiment [6].

For `Cn1cc(-n2cnc3c(NCc4nc5cc(Cl)c(Cl)cc5[nH]4)nc(N4CCOCC4)nc32)cn1`, the % of control in [7] amounted to 5.72%. For `CNC(=O)Nc1ccc(-c2nc(N3CC4CCC(C3)O4)c3cnn(C4CCC5(CC4)OCCO5)c3n2)cc1`, the % of control in experiment [8] was 92%. For the compound `CC[C@@H]1[C@H](F)C(=O)N[C@@H]1COc1nccc2cc(C(N)=O)c(OC)cc12` [ZIMLOVISERTIB], the % of inhibition in experiment [9] amounted to 16.4%. Consider `COc1cc(N(C)c2ccnc3ccc(C(F)(F)F)cc23)cc(OC)c1OC`, for which, in experiment [10], the % binding was found to be 88%. `CN(C(=O)c1cnn2cccnc12)c1cc2c(cc1N1CCOCC1)C(=O)N(C[C@@H](F)C(C)(C)O)C2` returned a dTM in experiment [11] of 0.2 K.

Compound `COCC(=O)NC/C=C/c1ccc2ncnc(Nc3ccc(Oc4ccc(C)nc4)c(C)c3)c2c1` [CP-724714] displayed a % of control in experiment [12] of 100%.

The compound `N#Cc1cccc(-c2c[nH]c3ncnc(N4CCOCC4)c23)c1` showed a % of control in [13] of 38%. Compound `O[C@H]1CC[C@H](Nc2ncc3nc(Nc4c(F)cc(F)cc4F)n([C@H]4CCOC4)c3n2)CC1` displayed a % of control in [14] of 100%.

The values are drawn from ChEMBL document CHEMBL5465560, “Selectivity Literature for EUbOPEN Chemogenomic Library” (2024).
